Assay results: the supplement of paper PMC11451515

Tested on: P12-Ichikawa
Test: cell viability relative to DMSO control; higher = less cytotoxic
Conditions: 48 h
Outline: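 Library compounds in DMSO were pin-dosed into 1536-well plates (5 μl) holding NOMO1 or SEM (500 cells/well) or P12-Ichikawa (1000 cells/well) leukemia cells, across an 11-point threefold series of 47 μM to 0.79 nM. Each cell line had been adapted for at least four passages in each medium. CellTiter-Glo One luminescence was read after 48 h at 37°C. Viability is the per-plate percentage relative to DMSO wells, with cell-free wells as background.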

[1] = HPLM + 10% dialyzed FBS, 0.000781 µM
[2] = HPLM + 10% dialyzed FBS, 0.00234 µM
[3] = HPLM + 10% dialyzed FBS, 0.00702 µM
[4] = HPLM + 10% dialyzed FBS, 0.0211 µM
[5] = HPLM + 10% dialyzed FBS, 0.0632 µM
[6] = HPLM + 10% dialyzed FBS, 0.19 µM
[7] = HPLM + 10% dialyzed FBS, 0.569 µM
[8] = HPLM + 10% dialyzed FBS, 1.71 µM
[9] = HPLM + 10% dialyzed FBS, 5.12 µM
[10] = HPLM + 10% dialyzed FBS, 15.4 µM
[11] = HPLM + 10% dialyzed FBS, 46.1 µM
[12] = RPMI 5 mM glucose + 10% FBS, 0.000781 µM
[13] = RPMI 5 mM glucose + 10% FBS, 0.00234 µM
[14] = RPMI 5 mM glucose + 10% FBS, 0.00702 µM
[15] = RPMI 5 mM glucose + 10% FBS, 0.0211 µM
[16] = RPMI 5 mM glucose + 10% FBS, 0.0632 µM
[17] = RPMI 5 mM glucose + 10% FBS, 0.19 µM
[18] = RPMI 5 mM glucose + 10% FBS, 0.569 µM
[19] = RPMI 5 mM glucose + 10% FBS, 1.71 µM
[20] = RPMI 5 mM glucose + 10% FBS, 5.12 µM
[21] = RPMI 5 mM glucose + 10% FBS, 15.4 µM
[22] = RPMI 5 mM glucose + 10% FBS, 46.1 µM
[23] = RPMI 5 mM glucose + 10% dialyzed FBS, 0.000781 µM
[24] = RPMI 5 mM glucose + 10% dialyzed FBS, 0.00234 µM
[25] = RPMI 5 mM glucose + 10% dialyzed FBS, 0.00702 µM
[26] = RPMI 5 mM glucose + 10% dialyzed FBS, 0.0211 µM
[27] = RPMI 5 mM glucose + 10% dialyzed FBS, 0.0632 µM
[28] = RPMI 5 mM glucose + 10% dialyzed FBS, 0.19 µM
[29] = RPMI 5 mM glucose + 10% dialyzed FBS, 0.569 µM
[30] = RPMI 5 mM glucose + 10% dialyzed FBS, 1.71 µM
[31] = RPMI 5 mM glucose + 10% dialyzed FBS, 5.12 µM
[32] = RPMI 5 mM glucose + 10% dialyzed FBS, 15.4 µM
[33] = RPMI 5 mM glucose + 10% dialyzed FBS, 46.1 µM

Structure (SMILES) | cell viability [1] [%] | cell viability [2] [%] | cell viability [3] [%] | cell viability [4] [%] | cell viability [5] [%] | cell viability [6] [%] | cell viability [7] [%] | cell viability [8] [%] | cell viability [9] [%] | cell viability [10] [%] | cell viability [11] [%] | cell viability [12] [%] | cell viability [13] [%] | cell viability [14] [%] | cell viability [15] [%] | cell viability [16] [%] | cell viability [17] [%] | cell viability [18] [%] | cell viability [19] [%] | cell viability [20] [%] | cell viability [21] [%] | cell viability [22] [%] | cell viability [23] [%] | cell viability [24] [%] | cell viability [25] [%] | cell viability [26] [%] | cell viability [27] [%] | cell viability [28] [%] | cell viability [29] [%] | cell viability [30] [%] | cell viability [31] [%] | cell viability [32] [%] | cell viability [33] [%]
COc1ccc(-n2nc(C(N)=O)c3c2C(=O)N(c2ccc(N4CCCCC4=O)cc2)CC3)cc1 | 118 | 121 | 125 | 132 | 132 | 127 | 141 | 124 | 16 | 15.2 | 14.8 | – | – | – | – | – | – | – | – | – | – | – | – | – | – | – | – | – | – | – | – | – | –
C[C@]12CC[C@@H]3c4ccc(O)cc4C[C@@H](CCCCCCCCC[S+]([O-])CCCC(F)(F)C(F)(F)F)[C@H]3[C@@H]1CC[C@@H]2O (stereo partly drawn) | 112 | 119 | 115 | 116 | 112 | 117 | 112 | 112 | 116 | 104 | 104 | – | – | – | – | – | – | – | – | – | – | – | – | – | – | – | – | – | – | – | – | – | –
Cc1cc2c(F)c(Oc3ncnn4cc(OC[C@@H](C)O)c(C)c34)ccc2[nH]1 | 115 | 105 | 102 | 106 | 111 | 106 | 97.2 | 97.5 | 96.9 | 73.9 | 52 | 97.7 | 107 | 101 | 98.1 | 101 | 109 | 104 | 99 | 98.8 | 80.7 | 55.8 | 102 | 100 | 97.3 | 101 | 104 | 102 | 95.7 | 97.8 | 90.1 | 79.3 | 52.3
C=CC(=O)N1CCC[C@@H](n2nc(-c3ccc(Oc4ccccc4)cc3)c3c(N)ncnc32)C1 | 127 | 123 | 120 | 121 | 114 | 112 | 111 | 91.8 | 80.7 | 76.3 | 80.5 | – | – | – | – | – | – | – | – | – | – | – | – | – | – | – | – | – | – | – | – | – | –
C[S+]([O-])(=O)C1=CC=C(C=C1)C/2=C(/C(=O)OC2)C3=CC=CC=C3 | 113 | 120 | 112 | 122 | 126 | 126 | 117 | 125 | 123 | 125 | 122 | 108 | 125 | 112 | 115 | 124 | 133 | 141 | 135 | 134 | 132 | 131 | 107 | 120 | 115 | 110 | 123 | 120 | 120 | 118 | 125 | 121 | 109
N#Cc1c(NC(=O)c2cccc3ccccc23)sc2c1CCCC2 | 121 | 122 | 126 | 123 | 136 | 132 | 82.4 | 21.6 | 18.2 | 28.2 | 27.4 | – | – | – | – | – | – | – | – | – | – | – | – | – | – | – | – | – | – | – | – | – | –
Cc1cn([C@@H]2O[C@H](CO)[C@@H](O)[C@@H]2F)c(=O)[nH]c1=O | 103 | 112 | 116 | 122 | 116 | 122 | 132 | 124 | 126 | 122 | 123 | 101 | 115 | 116 | 120 | 124 | 127 | 119 | 129 | 130 | 123 | 17.6 | 97 | 110 | 111 | 113 | 121 | 126 | 121 | 123 | 123 | 127 | 64.6
